Experimental data: patent publication US20040152751A1, “Pyrazolidinol compounds” (priority 1999, published 2004)

Tests used:
[1] = tested on: HIV-1; test: Antiviral activity: HIV antigen concentration in HIV-1 infected MT4 cells; assay type: cell-based; conditions: MT4 cells (human CD4 cell line), 1, 10 and 100 μM, after 72 hours; FIG. 1
Method: (§1) 40H—OPB was added to cultures of growing MT4 cells (a human CD4 cell line). HIV-1, stored in the culture medium at −75° C. was thawed and added in an amount which infected about 1 in 7 cells in each culture. The virus was absorbed to the cells for 2.3 hours at ambient temperature whereafter the cultures were centrifuged at 1200 rpm, the medium was removed, the cells were suspended in fresh growth medium and 40H—OPB was added to concentrations of 1, 10 and 100 μM (diluted in medium from a stock solution of 20 mM in DMSO). After 72 hours the HIV antigen concentration was determined using Abbott's test. By way of comparison phenbutazone (PB) was tested analogously.

[2] = tested on: HIV-1; test: Combination antiviral effect in HIV-1 infected MT4 cells; assay type: cell-based; conditions: with AZT, Indinavir, Nevirapin or ddI, FIGS. 2-5
Method: as §1
Cell culture experiments were carried out as in Example 12, but in place of 40H—OPB (0-100 μM) was added:
i) 40H—OPB ([…]) with AZT (0-1 μM)
iii) 40H—OPB (0-100 μM) with Nevirapin (0-10 μM)

[3] = tested on: mice; test: Mouse toxicity; assay type: in vivo
Method: 20 g mice were given single doses of 40H—OPB (20 mM in DMSO) intraperitoneally. […] Furthermore, injection of 40H—OPB could be increased to 2000 mg/kg (corresponding to 20 mM in the extracellular fluid) before the mice started to die (6 out of 10 died at 2000 mg/kg).

Structure (SMILES): CCCCC1(O)C(=O)N(c2ccccc2)N(c2ccc(O)cc2)C1=O (stereo not drawn) [40H—OPB, 4-(1-Butyl)-4-hydroxy-1-(4-hydroxyphenyl)-2-phenyl-3,5-pyrazolidinedione]
- inhibition of virus production (HIV antigen concentration, Abbott's test) [1]: inhibition of virus production by 40H—OPB at concentrations above the lowest tested
- anti-HIV effect in combination with other anti-viral agents [2]: enhanced anti-HIV effect
- lethal dose expressed as concentration in the extracellular fluid ([3]; mice, corresponding to 2000 mg/kg): 20 mM
- dose reached before the mice started to die (lethal dose) ([3]; mice, single dose intraperitoneally): 2000 mg/kg
- factor by which concentrations that effectively inhibit HIV replication in cell cultures are lower than the lethal dose in mice ([3]; mouse, in vivo, 2000 mg/kg): up to 200000 times
- mice that died ([3]; mouse, in vivo, ip, 2000 mg/kg): 6 out of 10
